SMILES strings stand for the structures.

For one assay, the system named is HCV 1b-377-neo replicon cells. Put plainly: HCV replicon assay (HCV 1b-377-neo replicon cells). Also on record: EC50 range against HCV 1b (Range): scale not given here. Type of assay: cell-based, Hepatitis C virus genotype 1b.
Conditions: not given
In short, it runs like this: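 HCV genotype 1b (1b-377-neo) replicon cells, run as a validated replicon assay; parallel testing in replicon cells carrying the NS5A Y2065H resistance mutation.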
On the technique in general: A replicon is a self-replicating genome or part of one, used to study replication in cells.
For `COC(=O)N[C@H](C(=O)N1CCC[C@H]1c1ncc(-c2ccc(-c3ccc(-c4cnc([C@@H]5CCCN5C(=O)[C@@H](NC(=O)OC)C(C)C)[nH]4)cc3C(=O)O)cc2)[nH]1)C(C)C` [Example M114, 4,4′-bis(2-((2S)-1-(N-(methoxycarbonyl)-L-valyl)-2-pyrrolidinyl)-1H-imidazol-5-yl)-2-biphenylcarboxylic acid], the “EC50 range against HCV 1b (Range)” value was “>A”. For the compound `COC(=O)N[C@H](C(=O)N1CCC[C@H]1c1ncc(-c2ccc(-c3ccc(-c4cnc([C@@H]5CCCN5C(=O)[C@@H](NC(=O)OC)C(C)C)[nH]4)cc3C(N)=O)cc2)[nH]1)C(C)C` [Example M118, methyl((1S)-1-(((2S)-2-(5-(2′-carbamoyl-4′-(2-((2S)-1-((2S)-2-((methoxycarbonyl)amino)-3-methylbutanoyl)-2-pyrrolidinyl)-1H-imidazol-5-yl)-4-biphenylyl)-1H-imidazol-2-yl)-1-pyrrolidinyl)carbonyl)-2-methylpropyl)carbamate], the “EC50 range against HCV 1b (Range)” value was “>A”.

Staying with this assay, now noted: Hepatitis C virus, read-out: EC50 range against HCV 1b (Range).
As for `COC(=O)N[C@H](C(=O)N1CCC[C@H]1c1nc(-c2cnc(-c3ccc(-c4cnc([C@@H]5CCCN5C(=O)[C@@H](NC(=O)OC)C5CC5)[nH]4)cc3)nc2)c[nH]1)C1CC1` [Example D75, methyl ((1S)-1-cyclopropyl-2-((2S)-2-(5-(2-(4-(2-((2S)-1-((2S)-2-cyclopropyl-2-((methoxy-carbonyl)amino)ace-tyl)-2-pyrroli-dinyl)-1H-imidazol-5-yl)phenyl)-5-pyrimi-dinyl)-1H-imida-zol-2-yl)-1-pyrroli-dinyl)-2-oxoeth-yl)carbamate], the EC50 (commonly the concentration that produces a half-maximal response) is 10 to 999 pM. The same measure, in the same setting: then `CCN(CC)[C@@H](C(=O)N1CCC[C@H]1c1ncc(-c2ccc(-c3ncc(-c4c[nH]c([C@@H]5CCCN5C(=O)[C@@H](NC(=O)OC)C(C)C)n4)cn3)cc2)[nH]1)c1ccccc1` [Example D76, methyl ((1S)-1-(((2S)-2-(5-(2-(4-(2-((2S)-1-((2R)-2-(diethyl-amino)-2-phenyl-acetyl)-2-pyrroli-dinyl)-1H-imidazol-5-yl)phenyl)-5-pyrimi-dinyl)-1H-imida-zol-2-yl)-1-pyrroli-dinyl)carbon-yl)-2-methylpro-pyl)carba-mate], with 10 to 999 pM; and `CCN(CC)[C@@H](C(=O)N1CCC[C@H]1c1ncc(-c2ccc(-c3ncc(-c4c[nH]c([C@@H]5CCCN5C(=O)[C@H](C)NC(=O)OC)n4)cn3)cc2)[nH]1)c1ccccc1` [Example D77, methyl ((1S)-2-((2S)-2-(5-(2-(4-(2-((2S)-1-((2R)-2-(diethyl-amino)-2-phenyl-acetyl)-2-pyrroli-dinyl)-1H-imidazol-5-yl)phenyl)-5-pyrimi-dinyl)-1H-imida-zol-2-yl)-1-pyrrolidinyl)-1-methyl-2-oxoeth-yl)carbamate], with 10 to 999 pM; and `COC(=O)N[C@H](C(=O)N1CCCC1c1ncc(-c2cc(C)c(-c3c(C)cc(-c4cnc([C@@H]5CCCN5C(=O)[C@@H](NC(=O)OC)C(C)C)[nH]4)cc3C)c(C)c2)[nH]1)C(C)C` (stereo partly shown) [Example F71], with 10 to 999 pM. On the same count and under the same terms, then `COC(=O)N[C@@H](C)C(=O)N(C)[C@@H](C)c1ncc(-c2ccc(-c3ccc(-c4[nH]c([C@@H]5CCCN5C(=O)[C@H](C)NC(=O)OC)nc4C(F)(F)F)cc3)cc2)[nH]1` [Example J42.a, methyl ((1S)-2-((2S)-2-(5-(4′-(2-((1S)-1-((N-(methoxy-carbonyl)-L-alanyl)(meth-yl)ami-no)ethyl)-1H-imidazol-5-yl)-4-biphenylyl)-4-(trifluoromethyl)-1H-imida-zol-2-yl)-1-pyrrolidinyl)-1-methyl-2-oxoeth-yl)carbamate], with 10 to 999 pM; and `COC(=O)NC(C(=O)N1CCC[C@H]1c1ncc(-c2cnc(-c3ccc(-c4[nH]c([C@@H]5CCCN5C(=O)C(NC(=O)OC)c5ccccc5)nc4C(F)(F)F)cc3)nc2)[nH]1)c1ccccc1` (stereo partly drawn) [Example J46, methyl ((1R)-2-((2S)-2-(5-(4-(5-(2-((2S)-1-((2R)-2-((methoxy-carbonyl)amino)-2-phenylacetyl)-2-pyrrolidinyl)-1H-imidazol-5-yl)-2-pyrimi-dinyl)phenyl)-4-(trifluoromethyl)-1H-imida-zol-2-yl)-1-pyrrolidinyl)-2-oxo-1-phenyleth-yl)carbamate], with 10 to 999 pM; and `CCN(CC)[C@@H](C(=O)N1CCC[C@H]1c1ncc(-c2cnc(-c3ccc(-c4[nH]c([C@@H]5CCCN5C(=O)[C@@H](c5ccccc5)N(CC)CC)nc4C(F)(F)F)cc3)nc2)[nH]1)c1ccccc1` [Example J47, (1R)-2-((2S)-2-(5-(4-(5-(2-((2S)-1-((2R)-2-(diethylamino)-2-phenylacetyl)-2-pyrrolidinyl)-1H-imidazol-5-yl)-2-pyrimi-dinyl)phenyl)-4-(trifluoromethyl)-1H-imida-zol-2-yl)-1-pyrrolidinyl)-N,N-dieth-yl-2-oxo-1-phenylethanamine], with 10 to 999 pM. Take `COC(=O)N[C@H](C(=O)N1CCC[C@H]1c1ncc(-c2cnc(-c3ccc(-c4[nH]c([C@@H]5CCCN5C(=O)[C@@H](NC(=O)OC)C(C)C)nc4C(F)(F)F)cc3)nc2)[nH]1)C(C)C` [Example J48, methyl ((1S)-1-(((2S)-2-(5-(2-(4-(2-((2S)-1-((2S)-2-((methoxy-carbonyl)amino)-3-methyl-butanoyl)-2-pyrrolidinyl)-4-(trifluoromethyl)-1H-imidazol-5-yl)phenyl)-5-pyrimidinyl)-1H-imidazol-2-yl)-1-pyrroli-dinyl)carbon-yl)-2-methylpro-pyl)carba-mate]: the EC50 lay within 10 to 999 pM. Still for that read-out and setting: then `COC(=O)N[C@H](C(=O)N1CCC[C@H]1c1ncc(-c2cnc(-c3ccc(-c4[nH]c([C@@H]5CCCN5C(=O)[C@@H](NC(=O)OC)C5CC5)nc4C(F)(F)F)cc3)nc2)[nH]1)C1CC1` [Example J49, methyl ((1S)-1-cyclopropyl-2-((2S)-2-(5-(4-(5-(2-((2S)-1-((2S)-2-cyclopropyl-2-((methoxy-carbonyl)amino)acetyl)-2-pyrrolidinyl)-1H-imidazol-5-yl)-2-pyrimi-dinyl)phenyl)-4-(trifluoromethyl)-1H-imida-zol-2-yl)-1-pyrrolidinyl)-2-oxoeth-yl)carbamate], with 10 to 999 pM; and `COC(=O)N[C@@H](C)C(=O)N1CCC[C@H]1c1ncc(-c2cnc(-c3ccc(-c4[nH]c([C@@H]5CCCN5C(=O)[C@H](C)NC(=O)OC)nc4C(F)(F)F)cc3)nc2)[nH]1` [Example J50, methyl ((1S)-2-((2S)-2-(5-(4-(5-(2-((2S)-1-(N-(methoxy-carbonyl)-L-alanyl)-2-pyrrolidinyl)-1H-imidazol-5-yl)-2-pyrimi-dinyl)phenyl)-4-(trifluoromethyl)-1H-imida-zol-2-yl)-1-pyrrolidinyl)-1-methyl-2-oxoeth-yl)carbamate], with 10 to 999 pM. Take `CCN(CC)[C@H](C)C(=O)N1CCC[C@H]1c1ncc(-c2cnc(-c3ccc(-c4[nH]c([C@@H]5CCCN5C(=O)[C@H](C)N(CC)CC)nc4C(F)(F)F)cc3)nc2)[nH]1` [Example J51, (2R)-1-((2S)-2-(5-(4-(5-(2-((2S)-1-((2R)-2-(diethyl-amino)prop-anoyl)-2-pyrrolidinyl)-1H-imidazol-5-yl)-2-pyrimi-dinyl)phenyl)-4-(trifluoromethyl)-1H-imida-zol-2-yl)-1-pyrrolidinyl)-N,N-dieth-yl-1-oxo-2-propanamine]: the EC50 lay in the range of 1000 to 99000 pM. Still for that read-out and setting: with `COC(=O)N[C@H](C(=O)N1CCC[C@H]1c1ncc(-c2ccc(-c3ccc(-c4cnc([C@@H]5CCCN5C(=O)[C@@H](NC(=O)OC)C(C)C)[nH]4)cc3CO)cc2)[nH]1)C(C)C` [Example M119, methyl((1S)-1-(((2S)-2-(5-(2-(hydroxymethyl)-4′-(2-((2S)-1-((2S)-2-((methoxycarbonyl)amino)-3-methylbutanoyl)-2-pyrrolidinyl)-1H-imidazol-5-yl)-4-biphenylyl)-1H-imidazol-2-yl)-1-pyrrolidinyl)carbonyl)-2-methylpropyl)carbamate] the figure was 100000 to 999000 pM; with `COC(=O)N[C@H](C(=O)N1CCC[C@H]1c1ncc(-c2ccc(-c3ccc(-c4cnc([C@@H]5CCCN5C(=O)[C@@H](NC(=O)OC)C(C)C)[nH]4)cc3CN(C)C)cc2)[nH]1)C(C)C` [Example M120, methyl((1S)-1-(((2S)-2-(5-(2-((dimethylamino)methyl)-4′-(2-((2S)-1-((2S)-2-((methoxycarbonyl)amino)-3-methylbutanoyl)-2-pyrrolidinyl)-1H-imidazol-5-yl)-4-biphenylyl)-1H-imidazol-2-yl)-1-pyrrolidinyl)carbonyl)-2-methylpropyl)carbamate], 100000 to 999000 pM. With `COC(=O)N[C@@H](C(=O)N1CCC[C@H]1c1ncc(-c2ccc(-c3ccc(-c4cnc([C@@H]5CCCN5C(=O)[C@H](NC(=O)OC)c5ccccc5)[nH]4)cc3CN(C)C)cc2)[nH]1)c1ccccc1` [Example M121, dimethyl((2-((dimethylamino)methyl)-4,4′-biphenyldiyl)bis(1H-imidazole-5,2-diyl(2S)-2,1-pyrrolidinediyl((1R)-2-oxo-1-phenyl-2,1-ethanediyl)))biscarbamate], the EC50 is 100000 to 999000 pM. On the same count and under the same terms, then `COC(=O)N[C@H](C(=O)N1[C@H](c2ncc(-c3ccc(-c4ccc(-c5cnc([C@@H]6C[C@@H]7C[C@@H]7N6C(=O)[C@@H](NC(=O)OC)C(C)C)[nH]5)cc4)cc3)[nH]2)C[C@@H]2C[C@@H]21)C(C)C` [Example M122, methyl((1S)-1-(((1S,3S,5S)-3-(5-(4′-(2-((1S,3S,5S)-2-((2S)-2-((methoxycarbonyl)amino)-3-methylbutanoyl)-2-azabicyclo[3.1.0]hex-3-yl)-1H-imidazol-5-yl)-4-biphenylyl)-1H-imidazol-2-yl)-2-azabicyclo[3.1.0]hex-2-yl)carbonyl)-2-methylpropyl)carbamate], with 1000 to 99000 pM.

Staying with this assay, now noted: read-out: EC50 range against HCV 1b (Range).
Consider `CNCC(=O)N1CCC[C@H]1c1ncc(-c2ccc(-c3ccc(-c4cnc([C@@H]5CCCN5C(=O)[C@@H](NC(=O)OC)C(C)C)[nH]4)cc3)cc2)[nH]1` [LS20], for which the EC50 was 10 to 999 pM.

As for `CCC(C)NCC(=O)N1CCC[C@H]1c1ncc(-c2ccc(-c3ccc(-c4cnc([C@@H]5CCCN5C(=O)[C@@H](NC(=O)OC)C(C)C)[nH]4)cc3)cc2)[nH]1` (stereo partly shown) [LS24], the EC50 lay within 10 to 999 pM.
